The results in this text go back to ChEMBL document CHEMBL3817825, “Synthesis and biological evaluation of Schiff base-linked imidazolyl naphthalimides as novel potential anti-MRSA agents” (2016).

Structures are written as SMILES. ≈ marks a conversion by molar mass, not a printed value. Calls of active or inactive are those of the source. The rule behind the calls is not given here.

The subject of assay [1] is Staphylococcus aureus. Description: Antibacterial activity against Staphylococcus aureus ATCC25923 after 24 hrs by two fold serial dilution method. Format: functional. The note with it: ATCC25923, 24 h.
Assay [2] concerns Staphylococcus aureus. Description: Potency index, ratio of chloromycin MIC to compound MIC for methicillin-resistant Staphylococcus aureus N315. Format: functional.
Assay [3] deals with Calf thymus DNA. The assay is described as follows: Binding affinity to calf thymus DNA at 260 nm by UV-Vis spectroscopy. Format: nucleic-acid assay. The note with it: Bos taurus.
For another assay, the system named is Pseudomonas aeruginosa. Description: Antibacterial activity against Pseudomonas aeruginosa ATCC27853 after 24 hrs by two fold serial dilution method. Format: functional. The note with it: ATCC27853, 24 h.
A further assay deals with Saccharomyces cerevisiae. Description: Antifungal activity against Beer yeast ATCC9763 after 24 hrs by two fold serial dilution method. Format: functional. The note with it: ATCC9763, 24 h.
A further assay deals with Aspergillus flavus. Description: Antifungal activity against Aspergillus flavus ATCC204304 after 24 hrs by two fold serial dilution method. The note with it: ATCC204304, 24 h. Format: functional.
Assay [4] deals with Staphylococcus aureus. The assay is described as follows: Potency index, ratio of norfloxacin MIC to compound MIC for methicillin-resistant Staphylococcus aureus N315. Format: functional.
Assay [5] has as its system Staphylococcus aureus. The assay is described as follows: Ratio of MIC for methicillin-resistant Staphylococcus aureus N315 after 10 passages to MIC for methicillin-resistant Staphylococcus aureus N315 before 10 passages. Format: functional.
Assay [6] has as its system Escherichia coli. Description: Antibacterial activity against Escherichia coli JM109 after 24 hrs by two fold serial dilution method. Format: functional. The note with it: JM109, 24 h.
Assay [7] deals with Staphylococcus aureus. The assay is described as follows: Bactericidal activity against methicillin-resistant Staphylococcus aureus N315 assessed as reduction in viable bacterial count at 6 times MIC within 1.5 hrs by time kill assay. Format: functional.
Assay [8] deals with Calf thymus DNA. The assay is described as follows: Binding affinity to calf thymus DNA assessed as hypochromism at 260 nm at 0 to 9 X 10^-5 mol/L by UV-Vis spectroscopy. Format: nucleic-acid assay. The note with it: Bos taurus.
The next assay has as its system Micrococcus luteus. The assay is described as follows: Antibacterial activity against Micrococcus luteus ATCC4698 after 24 hrs by two fold serial dilution method. Format: functional. The note with it: ATCC4698, 24 h.
Another assay has as its system Candida. The assay is described as follows: Antifungal activity against Candida mycoderma ATCC10231 after 24 hrs by two fold serial dilution method. Format: functional. The note with it: ATCC10231, 24 h.
The subject of the next assay is Candida albicans. Description: Antifungal activity against Candida albicans ATCC76615 after 24 hrs by two fold serial dilution method. The note with it: ATCC76615, 24 h. Format: functional.
Assay [9] relates to Bacillus subtilis. Description: Antibacterial activity against Bacillus subtilis ATCC6633 after 24 hrs by two fold serial dilution method. The note with it: ATCC6633, 24 h. Format: functional.
For assay [10], the system named is Staphylococcus aureus. Description: Antibacterial activity against methicillin-resistant Staphylococcus aureus N315 assessed as membrane permeabilization at 12 times MIC monitored for 2 hrs by propidium iodide staining method. Format: functional, organism-based.
In assay [11] the test system is Staphylococcus aureus. Description: Antibacterial activity against methicillin-resistant Staphylococcus aureus N315 after 24 hrs by two fold serial dilution method. Format: functional. The note with it: N315, 24 h.
The test system of assay [12] is Bacillus. Description: Antibacterial activity against Bacillus proteus ATCC13315 after 24 hrs by two fold serial dilution method. Format: functional. The note with it: ATCC13315, 24 h.
Assay [13] concerns Escherichia coli. Description: Antibacterial activity against Escherichia coli DH52 after 24 hrs by two fold serial dilution method. Format: functional. The note with it: DH52, 24 h.
For the next assay, the system named is Shigella dysenteriae. Description: Antibacterial activity against Shigella dysenteriae after 24 hrs by two fold serial dilution method. Format: functional.
Assay [14] relates to Staphylococcus aureus. Description: Antibacterial activity against methicillin-resistant Staphylococcus aureus N315 at 0.5 times MIC after 10 passages by two fold serial dilution method. Format: functional, organism-based.
In assay [15] the test system is Bacillus. The assay is described as follows: Antibacterial activity against Bacillus proteus ATCC13315 assessed as membrane permeabilization at 12 times MIC monitored for 2 hrs by propidium iodide staining method. Format: functional, organism-based.
Another assay deals with Salmonella typhi. The assay is described as follows: Antibacterial activity against Bacillus typhi after 24 hrs by two fold serial dilution method. Format: functional, Salmonella enterica subsp. enterica serovar Typhi. The note with it: Salmonella enterica.
The test system of assay [16] is Cyberlindnera jadinii. Description: Antifungal activity against Candida utilis ATCC9950 after 24 hrs by two fold serial dilution method. Format: functional. The note with it: Williopsis jadinii, ATCC9950, 24 h.
In assay [17] the test system is Calf thymus DNA. Description: Binding affinity to neutral red bound calf thymus DNA assessed as increase in absorption at 460 nm at 0 to 10.5 X 10^-5 mol/L by UV-Vis spectroscopy. Format: nucleic-acid assay. The note with it: Bos taurus.
Assay [18] deals with Cyberlindnera jadinii. The assay is described as follows: Potency index, ratio of fluconazole MIC to compound MIC for Candida utilis ATCC9950. Format: functional.
The subject of assay [19] is Escherichia coli. The assay is described as follows: Potency index, ratio of chloromycin MIC to compound MIC for Escherichia coli JM109. Format: functional.
Assay [20] concerns Bacillus subtilis. Description: Potency index, ratio of chloromycin MIC to compound MIC for Bacillus subtilis ATCC6633. Format: functional.

By MIC is commonly meant the least concentration at which growth counts as inhibited. Low readings indicate inhibition by little substance, high ones a need for much substance. As to `CCCCc1nc(Cl)c(/C=N/N2C(=O)c3cccc4c(N5CCOCC5)ccc(c34)C2=O)n1Cc1ccc([N+](=O)[O-])cc1`, the MIC in the assay on Staphylococcus aureus [1] came to 210 µM (≈ 126 µg/mL); against Pseudomonas aeruginosa, 50 µM (≈ 30.1 µg/mL); against Saccharomyces cerevisiae it was 420 µM (≈ 252 µg/mL); in the assay with Aspergillus flavus, 110 µM (≈ 66.1 µg/mL); in the assay with Escherichia coli [6], 50 µM (≈ 30.1 µg/mL); against Micrococcus luteus it was 850 µM (≈ 511 µg/mL). For the same compound, the MIC turned out to be 50 µM (≈ 30.1 µg/mL) with Candida; 3 µM (≈ 1.8 µg/mL) against Candida albicans; 210 µM (≈ 126 µg/mL) against Bacillus subtilis [9]; 3 µM (≈ 1.8 µg/mL) with Staphylococcus aureus [11]; 110 µM (≈ 66.1 µg/mL) against Bacillus [12]; 420 µM (≈ 252 µg/mL) in the assay on Escherichia coli [13]. In addition, the MIC with Shigella dysenteriae came out at 0.11 µM (≈ 0.0661 µg/mL); against Salmonella typhi, 0.11 µM (≈ 0.0661 µg/mL); against Cyberlindnera jadinii [16], 10 µM (≈ 6.01 µg/mL). Moreover, the Ratio in the assay on Staphylococcus aureus [2] is reported as 17; in the assay with Staphylococcus aureus [4] it was 7; in the assay on Staphylococcus aureus [5], “<=100”. The compound also came in with a K in the assay with Calf thymus DNA [3] of 0.59 ×10⁴ L/mol. Besides, the Activity in the assay with Staphylococcus aureus [7] is over 3 log10CFU/ml. The result in the assay with Calf thymus DNA [8], in the assay on Staphylococcus aureus [10], in the assay on Staphylococcus aureus [14], in the assay on Bacillus [15] and in the assay with Calf thymus DNA [17] was Active.

Consider `CCCCCCCCCCn1c(CCCC)nc(Cl)c1/C=N/N1C(=O)c2cccc3c(N4CCOCC4)ccc(c23)C1=O`, for which the MIC against Staphylococcus aureus [1] was 420 µM (≈ 255 µg/mL); in the assay with Pseudomonas aeruginosa, 420 µM (≈ 255 µg/mL); in the assay with Saccharomyces cerevisiae, 420 µM (≈ 255 µg/mL); with Aspergillus flavus it was 210 µM (≈ 127 µg/mL); in the assay on Escherichia coli [6] it was 840 µM (≈ 509 µg/mL); in the assay on Micrococcus luteus it was 840 µM (≈ 509 µg/mL). The MIC against Candida amounted to 210 µM (≈ 127 µg/mL); against Candida albicans it was 210 µM (≈ 127 µg/mL); in the assay on Bacillus subtilis [9], 30 µM (≈ 18.2 µg/mL); with Staphylococcus aureus [11] it was 30 µM (≈ 18.2 µg/mL); with Bacillus [12], 210 µM (≈ 127 µg/mL); against Escherichia coli [13], 420 µM (≈ 255 µg/mL). Further, the MIC came out at 0.1 µM (≈ 0.0606 µg/mL) with Shigella dysenteriae, 0.84 µM (≈ 0.509 µg/mL) in the assay on Salmonella typhi and 3 µM (≈ 1.82 µg/mL) against Cyberlindnera jadinii [16]. Besides, the Ratio with Cyberlindnera jadinii [18] was 10.

Consider `CCCCCCCCCCCCn1c(CCCC)nc(Cl)c1/C=N/N1C(=O)c2cccc3c(N4CCOCC4)ccc(c23)C1=O`, for which the MIC was determined as 400 µM (≈ 254 µg/mL) against Staphylococcus aureus [1]; 800 µM (≈ 507 µg/mL) with Pseudomonas aeruginosa; 400 µM (≈ 254 µg/mL) against Saccharomyces cerevisiae; 810 µM (≈ 514 µg/mL) with Aspergillus flavus; 10 µM (≈ 6.34 µg/mL) in the assay with Escherichia coli [6]; 400 µM (≈ 254 µg/mL) with Micrococcus luteus. In addition, the MIC against Candida is 810 µM (≈ 514 µg/mL); in the assay with Candida albicans, 810 µM (≈ 514 µg/mL); with Bacillus subtilis [9], 800 µM (≈ 507 µg/mL); with Staphylococcus aureus [11], 200 µM (≈ 127 µg/mL); against Bacillus [12], 800 µM (≈ 507 µg/mL); against Escherichia coli [13], 800 µM (≈ 507 µg/mL). Moreover, the values for the MIC against Shigella dysenteriae, against Salmonella typhi and with Cyberlindnera jadinii [16] were 0.8 µM (≈ 0.507 µg/mL), 0.8 µM (≈ 0.507 µg/mL) and 10 µM (≈ 6.34 µg/mL), respectively. Moreover, the Ratio in the assay on Escherichia coli [19] was found to be 10.

Take `CCCCc1nc(Cl)c(/C=N/N2C(=O)c3cccc4c(N5CCOCC5)ccc(c34)C2=O)n1Cc1cccc(Cl)c1`: the MIC in the assay on Staphylococcus aureus [1] was 430 µM (≈ 254 µg/mL); in the assay on Pseudomonas aeruginosa it was 430 µM (≈ 254 µg/mL); against Saccharomyces cerevisiae, 220 µM (≈ 130 µg/mL); against Aspergillus flavus, 430 µM (≈ 254 µg/mL); in the assay with Escherichia coli [6] it was 430 µM (≈ 254 µg/mL); against Micrococcus luteus, 430 µM (≈ 254 µg/mL). Besides, the MIC against Candida came to 430 µM (≈ 254 µg/mL); against Candida albicans, 430 µM (≈ 254 µg/mL); in the assay on Bacillus subtilis [9], 7 µM (≈ 4.13 µg/mL); in the assay with Staphylococcus aureus [11], 430 µM (≈ 254 µg/mL); in the assay with Bacillus [12] it was 220 µM (≈ 130 µg/mL); against Escherichia coli [13], 430 µM (≈ 254 µg/mL). The figures for the MIC in the assay on Shigella dysenteriae, in the assay with Salmonella typhi and with Cyberlindnera jadinii [16] were 0.11 µM (≈ 0.065 µg/mL), 0.43 µM (≈ 0.254 µg/mL) and 220 µM (≈ 130 µg/mL), respectively. In the assay on Bacillus subtilis [20], the Ratio stood at 14.

Regarding `CCCCc1nc(Cl)c(/C=N/N2C(=O)c3cccc4c(N5CCOCC5)ccc(c34)C2=O)n1Cc1ccccc1F`, the MIC against Staphylococcus aureus [1] stood at 220 µM (≈ 126 µg/mL); against Pseudomonas aeruginosa, 220 µM (≈ 126 µg/mL); against Saccharomyces cerevisiae, 440 µM (≈ 253 µg/mL); with Aspergillus flavus, 440 µM (≈ 253 µg/mL); in the assay on Escherichia coli [6], 110 µM (≈ 63.1 µg/mL); with Micrococcus luteus, 220 µM (≈ 126 µg/mL). Also, the MIC with Candida, against Candida albicans, in the assay on Bacillus subtilis [9], against Staphylococcus aureus [11], in the assay with Bacillus [12] and against Escherichia coli [13] was 440 µM (≈ 253 µg/mL) in each case. The MIC against Shigella dysenteriae came to 0.44 µM (≈ 0.253 µg/mL); in the assay with Salmonella typhi it was 0.44 µM (≈ 0.253 µg/mL); in the assay with Cyberlindnera jadinii [16], 440 µM (≈ 253 µg/mL).
